PubChem BioAssay AID2060888 (Molecular Pharmacology Branch, DTP, NCI, 2025)
Values joined by “and” are separate entries in the source; they are usually repeats but may differ in a detail not shown here. Identical values can stand only once. Values belong to the compound of their own block, whether it stands above or below them.

Tested on: 695427-040-R-J1-PDC complex spheroid viability
Assay: Anticancer human tumor 695427-040-R-J1-PDC patient-derived colon adenocarcinoma cell line growth inhibition [RAS]
Conditions: for viability, T/C: stronger effect = lower value
In short: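 Tumour cells grown as complex spheroids with HUVEC endothelial cells and mesenchymal stem cells, treated with RAS pathway inhibitor combinations. Each agent spans half-log steps from near clinical Cmax, or 10 microM where Cmax is unknown.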
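Further: viability read after seven days of drug exposure.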
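Wherever viability, T/C is given: 100% = DMSO vehicle control viability.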

IC50 (curve of first compound, second compound 0.000949 µM): > 10000 nM
IC50 (curve of first compound, second compound 0.003 µM): > 10000 nM
IC50 (curve of first compound, second compound 0.00949 µM): > 10000 nM
IC50 (curve of first compound, second compound 0.03 µM): > 10000 nM
IC50 (curve of first compound, second compound 0.0949 µM): > 10000 nM
IC50 (curve of first compound, second compound 0.3 µM): > 10000 nM
SMILES: CC(=O)OC12COC1CC(O)C1(C)C(=O)C(O)C3=C(C)C(OC(=O)C(O)C(NC(=O)OC(C)(C)C)c4ccccc4)CC(O)(C(OC(=O)c4ccccc4)C21)C3(C)C (centres undefined) + CCn1c(-c2cccnc2C(C)OC)c2c3cc(ccc31)N1CCOC(CC(NC(=O)C(C(C)C)N(C)C(=O)C3(F)CCN(C(=O)C#CC(C)(C)N(C)C)CC3)C(=O)N3CCCC(N3)C(=O)OCC(C)(C)C2)C1
viability, T/C (second compound 0.000949 µM, first compound 0.0316 µM): 81%
viability, T/C (second compound 0.000949 µM, first compound 0.1 µM): 73.9%
viability, T/C (second compound 0.000949 µM, first compound 0.316 µM): 76%
viability, T/C (second compound 0.000949 µM, first compound 1 µM): 61.4%
viability, T/C (second compound 0.000949 µM, first compound 3.16 µM): 65.3%
viability, T/C (second compound 0.000949 µM, first compound 10 µM): 73.5%
viability, T/C (second compound 0.003 µM, first compound 0.0316 µM): 95.7%
viability, T/C (second compound 0.003 µM, first compound 0.1 µM): 77.1%
viability, T/C (second compound 0.003 µM, first compound 0.316 µM): 61.1%
viability, T/C (second compound 0.003 µM, first compound 1 µM): 64.1%
viability, T/C (second compound 0.003 µM, first compound 3.16 µM): 70.8%
viability, T/C (second compound 0.003 µM, first compound 10 µM): 66.9%
viability, T/C (second compound 0.00949 µM, first compound 0.0316 µM): 107%
viability, T/C (second compound 0.00949 µM, first compound 0.1 µM): 61%
viability, T/C (second compound 0.00949 µM, first compound 0.316 µM): 67.4%
viability, T/C (second compound 0.00949 µM, first compound 1 µM): 69.3%
viability, T/C (second compound 0.00949 µM, first compound 3.16 µM): 78.5%
viability, T/C (second compound 0.00949 µM, first compound 10 µM): 69%
viability, T/C (second compound 0.03 µM, first compound 0.0316 µM): 83.6%
viability, T/C (second compound 0.03 µM, first compound 0.1 µM): 71.9%
viability, T/C (second compound 0.03 µM, first compound 0.316 µM): 61%
viability, T/C (second compound 0.03 µM, first compound 1 µM): 68.4%
viability, T/C (second compound 0.03 µM, first compound 3.16 µM): 78.8%
viability, T/C (second compound 0.03 µM, first compound 10 µM): 77%
viability, T/C (second compound 0.0949 µM, first compound 0.0316 µM): 77.7%
viability, T/C (second compound 0.0949 µM, first compound 0.1 µM): 51.4%
viability, T/C (second compound 0.0949 µM, first compound 0.316 µM): 67.1%
viability, T/C (second compound 0.0949 µM, first compound 1 µM): 57.4%
viability, T/C (second compound 0.0949 µM, first compound 3.16 µM): 76%
viability, T/C (second compound 0.0949 µM, first compound 10 µM): 82.4%
viability, T/C (second compound 0.3 µM, first compound 0.0316 µM): 76.8%
viability, T/C (second compound 0.3 µM, first compound 0.1 µM): 60.1%
viability, T/C (second compound 0.3 µM, first compound 0.316 µM): 68.1%
viability, T/C (second compound 0.3 µM, first compound 1 µM): 51.7%
viability, T/C (second compound 0.3 µM, first compound 3.16 µM): 43.9%
viability, T/C (second compound 0.3 µM, first compound 10 µM): 71.1%

IC50 (curve of first compound, second compound 0.00316 µM): 112 nM
IC50 (curve of first compound, second compound 0.01 µM): 123 nM
IC50 (curve of first compound, second compound 0.0316 µM): 129 nM
IC50 (curve of first compound, second compound 0.1 µM): 128 nM
IC50 (curve of first compound, second compound 0.316 µM): 144 nM
IC50 (curve of first compound, second compound 1 µM): 162 nM
SMILES: CCc1c2c(nc3ccc(O)cc13)-c1cc3c(c(=O)n1C2)COC(=O)[C@]3(O)CC + C=CC(=O)N1CCN(c2nc(OCC3CCCN3C)nc3c(F)c(-c4nc(N)cc(C)c4C(F)(F)F)c(Cl)cc23)C(C)C1
viability, T/C (second compound 0.00316 µM, first compound 0.000949 µM): 88%
viability, T/C (second compound 0.00316 µM, first compound 0.003 µM): 88.2%
viability, T/C (second compound 0.00316 µM, first compound 0.00949 µM): 84.8%
viability, T/C (second compound 0.00316 µM, first compound 0.03 µM): 74.5%
viability, T/C (second compound 0.00316 µM, first compound 0.0949 µM): 54.3%
viability, T/C (second compound 0.00316 µM, first compound 0.3 µM): 25.5%
viability, T/C (second compound 0.01 µM, first compound 0.000949 µM): 98.8%
viability, T/C (second compound 0.01 µM, first compound 0.003 µM): 92.1%
viability, T/C (second compound 0.01 µM, first compound 0.00949 µM): 78.7%
viability, T/C (second compound 0.01 µM, first compound 0.03 µM): 72.9%
viability, T/C (second compound 0.01 µM, first compound 0.0949 µM): 58.4%
viability, T/C (second compound 0.01 µM, first compound 0.3 µM): 30.9%
viability, T/C (second compound 0.0316 µM, first compound 0.000949 µM): 92.7%
viability, T/C (second compound 0.0316 µM, first compound 0.003 µM): 88.1%
viability, T/C (second compound 0.0316 µM, first compound 0.00949 µM): 79.4%
viability, T/C (second compound 0.0316 µM, first compound 0.03 µM): 75.8%
viability, T/C (second compound 0.0316 µM, first compound 0.0949 µM): 60.9%
viability, T/C (second compound 0.0316 µM, first compound 0.3 µM): 25.6%
viability, T/C (second compound 0.1 µM, first compound 0.000949 µM): 94.8%
viability, T/C (second compound 0.1 µM, first compound 0.003 µM): 88.6%
viability, T/C (second compound 0.1 µM, first compound 0.00949 µM): 79.3%
viability, T/C (second compound 0.1 µM, first compound 0.03 µM): 68.9%
viability, T/C (second compound 0.1 µM, first compound 0.0949 µM): 60%
viability, T/C (second compound 0.1 µM, first compound 0.3 µM): 32%
viability, T/C (second compound 0.316 µM, first compound 0.000949 µM): 96%
viability, T/C (second compound 0.316 µM, first compound 0.003 µM): 91.9%
viability, T/C (second compound 0.316 µM, first compound 0.00949 µM): 82.7%
viability, T/C (second compound 0.316 µM, first compound 0.03 µM): 80%
viability, T/C (second compound 0.316 µM, first compound 0.0949 µM): 63.6%
viability, T/C (second compound 0.316 µM, first compound 0.3 µM): 28.3%
viability, T/C (second compound 1 µM, first compound 0.000949 µM): 93.2%
viability, T/C (second compound 1 µM, first compound 0.003 µM): 93.4%
viability, T/C (second compound 1 µM, first compound 0.00949 µM): 85.1%
viability, T/C (second compound 1 µM, first compound 0.03 µM): 85.3%
viability, T/C (second compound 1 µM, first compound 0.0949 µM): 62.4%
viability, T/C (second compound 1 µM, first compound 0.3 µM): 34.9%

IC50 (curve of compound): > 10000 nM and 10000 nM
SMILES: CC(C)NCC(C(=O)N1CCN(c2ncnc3c2C(C)CC3O)CC1)c1ccc(Cl)cc1 (centres undefined)
viability, T/C (compound 0.0316 µM): 102% [middle of 4 runs]
viability, T/C (compound 0.316 µM): 96.3% [middle of 4 runs]
viability, T/C (compound 1 µM): 88.8% [middle of 4 runs]

IC50 (curve of compound): > 1000 nM
SMILES: Nc1ccn(C2OC(CO)C(O)C2(F)F)c(=O)n1 (centres undefined)
viability, T/C (compound 0.00316 µM): 92.8% [middle of 4 runs]
viability, T/C (compound 0.0316 µM): 78.1% [middle of 4 runs]
viability, T/C (compound 0.1 µM): 78.2% [middle of 4 runs]
viability, T/C (compound 0.316 µM): 72% [middle of 4 runs]
viability, T/C (compound 1 µM): 65% [middle of 4 runs]
